The text below walks through data of US20080248008A1, “Inhibitors of Protein Kinase a Anchoring” (priority 2004, published 2008).

Holding throughout (format): cell-based
One series addresses T1, PKA-RIα (Mus musculus, UniProt Q9DBC7).
T1 construct: host or cells: mouse Y-1 adrenocortical cells
Nature of the series: Immunofluorescence of PKA-RIα at mitochondria in Y1 adrenal cells. Here is the method: Mouse adrenocortical Y1 cells were obtained from ATCC (Cat. No. CCL-79) and maintained in DMEM/HAM'S F-12 (Cat. No. E15-813, PAA Laboratories GmbH, Pasching, Austria) supplemented with 100 μg/ml streptomycin, 100 U/ml penicillin and 10% (v/v) fetal calf serum in a humidified atmosphere of 5% CO2 and split by trypsination at less than 80% confluence.
Immunofluorescence analysis of cells was performed as previously described (Collas, P. et al., 1996, J. Cell Biol. 135, 1715-1725). RI was detected by using an anti-RI monoclonal antibody (Transduction Laboratories) as a primary antibody at a […] and Alexa-488 as a secondary antibody (1:600, Goat anti Mouse IgGs, Molecular Probes). Immunofluorescence was performed on Y1 cells attached to collagen/fibronectin coated coverslips. Mitochondria were stained using MitoTracker Red CMXRos (Molecular Probes) in fresh medium with incubation at 37° C. for 30 min prior to cell fixation. All cells were washed in PBS, fixed with 3% paraformaldehyde and permeabilised using 0.1% Triton X-100. Proteins were blocked in 2% BSA/PBST prior to antibody labeling. […] Alternatively, fluorescently labeled cells were examined using a Leica TCS SP1 confocal fluorescence microscope (Leica, Heidelberg, Germany) equipped with an Ar (488 nm) and two He/Ne (543 and 633 nm) laser lines. […]

The next series has as its target PKA-RIIα (Homo sapiens, UniProt P13861). The series is described as follows: Displacement of PKA-RII from the particulate fraction in T cells. The settings on record: increasing concentrations, relative to PKCα. Also on record: endogenous in cells; host or cells: human peripheral blood CD3+ T cells. On the procedure: Displacement of PKA-RII from the particulate Fraction in T-cells. Negatively selected CD3^+ T-cells (20×10^6/3 ml/well) were cultured in 6-well plates with 0-50 μM Arg11-SuperAKAPIS (or 0-50 μM M3-Arg11) for 12 hours. Cells were lysed in 250 μl lysis buffer (50 mM Tris pH 7.4, 100 mM NaCl, 5 mM EDTA, 50 mM NaF, 10 mM Na-pyrofosfat, 1 mM Na3VO4, 1 mM PMSF, 0.7% triton X-100) and centrifuged at 14 000×g for 10 min. The sedimented proteins were resuspended in loading dye before being resolved by SDS/PAGE and detected by immunoblotting.
To assess the effect of MEME3-Arg11 on anchoring of PKA type II, T cells were treated with MEME3-Arg11 or Arg11-super-AKAP-is (as a positive control) and particulate fractions were isolated, followed by 10% PAGE and blotting onto a PVDF membrane (fraction no. 2-4, FIG. 17 in upper panel) and analysed by immunoblotting using antibodies against PKA-RIIα (FIG. 17, upper panel). The levels of PKA-RIIα in the particulate fractions were measured by densitometry of the autoradiograms (lower panel). The level of PKA-RIIα was set relative to that of the internal standard PKCα.

The test system of series [1] is human peripheral blood T cells. The series is described as follows: Flow cytometry of cell death/apoptosis in activated T cells. On the procedure:
Flow cytometry. Negatively selected CD3^+ T cells cultured in flat-bottom, 96-well plates (Costar; 0.2×10^6 cells/well) were activated with OKT-3 (4 ng/μl) for […] at 37° C., crosslinked with F(ab′)2 fragments (39 μg/ml) and thereafter incubated with arginine-coupled peptides at 0-50 μM. For analyzing the DNA content, the cells were incubated further for 36-40 hours and thereafter washed in PBS, fixed in […], permeabilized in FACS Permeabilizing Solution (BD BioSciences, San Jose, Calif.) for 10 min and washed in PBS containing 1% BSA and 100 μg/ml RNase prior to being stained with propidium iodide (PI, Cat. No. 51-66211E BD Biosciences Pharmingen, San Diego, Calif., USA) (25 μg/ml) for 15 min 37° C. The cells were washed twice in PBS and fixed in 1% paraformaldehyde before flow cytometry (FACSCalibur, BD Biosciences, San Jose, Calif.) and subsequent analysis using FlowJo software (Tree Star, San Carlos, Calif.). For analyzing apoptosis and necrosis, the cells were incubated further for 18 hours and thereafter washed in PBS, fixed in 1% paraformaldehyde and washed with annexin binding buffer (Cat. No. 51-66121E, BD Biosciences) prior to being stained with Annexin V (3 μl to 50 μl volume, Cat. No. 556419, BD Biosciences Pharmingen) and PI (3 μg/ml) for 20 min on ice. The cells were washed twice in PBS and fixed in 1% paraformaldehyde before being analyzed on a flow cytometer (FACSCalibur, BD Biosciences, San Jose, Calif.) and analyzed using FlowJo software (Tree Star, San Carlos, Calif.).
To test whether MEME3-Arg11 induces cell death or apoptosis in human peripheral blood T cells, activated T cells treated with increasing doses of MEME3-Arg11 were analysed by forward scatter/sideward scatter (FSC/SSC) in a fluorescence-activated cell sorter (FACS). […] Apoptosis was also assessed by Annexin V^FITC labeling under the same experimental conditions. […] The effect of the peptides on cellular DNA content was also measured by flow cytometry after permeabilization of the fixed cells and PI-staining.
Cell death was also analysed by monitoring PS externalization by Annexin V binding and destruction of the cellular membrane by PI staining using FACS.
On the technique in general: In flow cytometry, cells or beads pass a laser one at a time.

[2] abbreviates: activated T cells, increasing doses.

Sequence of PKA-RIIα (P13861 whole entry): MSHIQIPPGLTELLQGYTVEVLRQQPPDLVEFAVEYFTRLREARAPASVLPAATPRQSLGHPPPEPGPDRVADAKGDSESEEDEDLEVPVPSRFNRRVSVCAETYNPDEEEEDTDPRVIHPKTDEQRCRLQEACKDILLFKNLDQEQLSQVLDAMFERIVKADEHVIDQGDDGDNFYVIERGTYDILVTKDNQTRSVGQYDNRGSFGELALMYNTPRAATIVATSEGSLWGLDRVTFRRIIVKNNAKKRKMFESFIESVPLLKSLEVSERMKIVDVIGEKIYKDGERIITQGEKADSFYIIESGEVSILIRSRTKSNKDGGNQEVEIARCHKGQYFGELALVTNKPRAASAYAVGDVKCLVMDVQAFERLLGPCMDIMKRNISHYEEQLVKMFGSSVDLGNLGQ

Consider “LEQYANQLADQIIKEATERRRRRRRRRrr [MEME3-Arg11]”, for which the “displacement of PKA-RIα from mitochondria” value at PKA-RIα is given as “displaced from mitochondria”. At PKA-RIIα, the “PKA-RIIα in particulate fraction” value is on record as “No reduction in PKA-RIIα”. In series [1] (setting [2]), the “annexin V binding” value is given as “no increase in annexin V binding, but rather a small decrease” and the “morphological changes (FSC/SSC)” value was “no morphological changes characteristic of apoptosis”. For the same substance, the “late apoptotic cells (AV+/PI+)” value in series [1] (overnight) is on record as “No late apoptotic cells (AV+/PI+) were detected”. Moreover, in series [1] (permeabilized fixed cells), the “DNA content (aneuploidity), PI-staining” value was “No change in DNA content”.
